# Experimental data published in EP4792822A1, “USE OF PEPTIDE AMIDE COMPOUND IN PREPARATION OF DRUG FOR […] AND VOMITING” (Haisco Pharmaceutical Group Co., Ltd., priority 2023, dated 2025).
# Tested on: subjects undergoing elective laparoscopic abdominal surgery under general anaesthesia
# Assay: Example 1: phase III, placebo-controlled clinical study of compound 1 injection for postoperative analgesia (morphine rescue; nausea and vomiting recorded)
# Assay type: in vivo, patients
# From the text: This study was a multicentre, randomised, double-blind, placebo-controlled phase III clinical study conducted in China to evaluate the efficacy and safety of compound 1 injection for postoperative analgesia in subjects undergoing elective laparoscopic abdominal surgery under general anaesthesia. […] subjects undergoing elective laparoscopic abdominal surgery under general anaesthesia were enrolled and randomised to two groups: the compound 1 group (136 subjects) and the placebo group (135 subjects). All subjects received an intravenous injection of compound 1 injection or placebo injection within 5 min after the completion of the first NRS score assessment, and the end time of the first postoperative administration was recorded as 0 min. At 8 h and 16 h after the end of the first administration, within a time window of ±15 min, a single corresponding dose of the compound 1 injection or placebo injection was administered intravenously to the subjects.
# Resting NRS score assessments were performed in subjects within 5 min before the first postoperative administration, and at 15 min ± 5 min, 30 min ± 5 min, 1 h ± 5 min, 2 h ± 15 min, 4 h ± 15 min, 8 h (within 30 min before the second postoperative administration), 12 h ± 30 min, 16 h (within 30 min before the last postoperative administration), 20 h ± 30 min, and 24 h ± 1 h after the first postoperative administration. The NRS score for resting pain refers to the NRS score assessed when the subject is at rest (e.g., sitting or lying still). If the subject was unconscious at a scheduled NRS assessment time point, the score was recorded as follows: if the previous NRS score was ≥ 2, the current NRS score was recorded as 2; if the previous NRS score was < 2, the current NRS score was recorded as the previous score. Meanwhile, it was documented that the subject was unconscious at the time of assessment.
# A morphine injection was administered via intravenous injection for rescue treatment if the resting pain NRS score was ≥ 4 at any pain assessment time point after the first postoperative administration, or if the subject complained of pain at any time point and the resting pain NRS score was ≥ 4. It was recommended that the time from the subject's NRS assessment to actual administration of morphine injection be ≤ 30 min; an initial intravenous dose of 3 mg be administered, followed by additional doses as needed. It was also recommended that the interval between two rescue treatments be ≥ 2 h and that the interval between rescue medication and study drug administration be ≥ 1 h.
# Prophylactic antiemetic treatment was prohibited during the study. After the first postoperative administration, the investigator administered antiemetic agents based on the occurrence of nausea and vomiting in the subject, and the dosage of the antiemetic agents was recorded. Tropisetron was the preferred antiemetic agent (an initial intravenous dose of 2.5 mg, followed by additional doses as needed, not to exceed 10 mg within 24 h). If tropisetron was insufficiently effective, other agents were used by the investigator in accordance with routine clinical practice.
# Abdominal surgery, female sex, non-smoking status, and postoperative opioid use are known as risk factors leading to postoperation nausea and vomiting (PONV). Two studies of compound 1 injection for postoperative analgesia after abdominal surgery were completed. Morphine (Example 1) and flurbiprofen axetil (Example 2) were used as rescue analgesic agents in the two studies, respectively, and prophylactic antiemetic treatment was prohibited during the studies. The study results were summarised as follows.
# [1] = Example 1, No morphine use (no rescue analgesia), N = 91
# [2] = Example 1, No morphine use, listed as compound 1
# [3] = Example 1, Overall, safety analysis set, N = 136
# [4] = Example 1, Overall, safety analysis set, N = 136, listed as compound 1
# [5] = within 0-12 h and 0-24 h after the first postoperative administration, compared with placebo
# [6] = within 0-24 h after the first administration, compared with placebo
compound,measurement,setting,value
"CC(=O)N1CC2(CCN(C(=O)[C@@H](CCCCN)NC(=O)[C@@H](CC(C)C)NC(=O)[C@@H](Cc3ccccc3)NC(=O)[C@H](N)Cc3ccccc3)CC2)C1 [Compound 1, (2R)-N-[(1R)-1-(2-acetyl-2,7-diazaspiro[3.5]nonane-7-carbonyl)-5-amino-pentyl]-2-[[(2R)-2-[[(2R)-2-amino-3-phenyl-propionyl]amino]-3-phenylpropionyl]amino]-4-methyl-pentanamide]",overall safety and tolerability,Example 1,good overall safety and tolerability
same,Change in incidence of nausea relative to placebo,"Example 1, No morphine use",25.7% reduction
same,Change in incidence of vomiting relative to placebo,"Example 1, No morphine use",20.1% reduction
same,Nausea (incidence),[1],16.5%
same,Vomiting (incidence),[1],18.7%
same,Change in incidence of nausea relative to placebo,[2],25.7 % reduction
same,Change in incidence of vomiting relative to placebo,[2],20.1 % reduction
same,Change in incidence of nausea relative to placebo,"Example 1, Overall",35.8% reduction
same,Change in incidence of vomiting relative to placebo,"Example 1, Overall",52.8% reduction
same,Nausea (incidence),[3],17.6%
same,Vomiting (incidence),[3],15.4%
same,Nausea (incidence),[4],17.6%
same,Vomiting (incidence),[4],15.4%
same,PID at each time point,compared with placebo,significantly lower than those in the placebo group
same,SPID0-12 h after the first postoperative administration,compared with placebo,significantly lower than those in the placebo group
same,SPID0-24 h after the first postoperative administration,compared with placebo,superior to that in the placebo group
same,duration of analgesia,compared with placebo,significantly longer than those in the placebo group
same,incidences of adverse reactions,compared with placebo,comparable to those in the placebo group
same,incidences of adverse reactions (including nausea and vomiting),compared with placebo,significantly lower than those in the placebo group
same,incidences of the main TEAEs (including nausea and vomiting),compared with placebo,significantly lower than those in the placebo group
same,subject and investigator satisfaction scores for postoperative analgesia,compared with placebo,significantly higher than those in the placebo group
same,time to the first use of rescue analgesic agents,compared with placebo,significantly longer than those in the placebo group
same,effect on PONV in patients after abdominal surgery,summary of both Phase III studies (Example 1),preventive and/or alleviating effect on PONV
same,mean cumulative dosage of rescue analgesic agents,[5],significantly lower than those in the placebo group
same,proportion of subjects with NRS scores ≤ 3,[5],significantly higher than those in the placebo group
same,mean cumulative dosage of antiemetic agents,[6],significantly lower than those in the placebo group
same,proportion of subjects using antiemetic agents,[6],significantly lower than those in the placebo group
same,proportion of subjects using rescue analgesic agents,"within 0-24 h after the first postoperative administration, compared with placebo",significantly lower than those in the placebo group
